Here are results for one compound from patent publication US9616033B2, “Selective metabolic approach to increasing oral bioavailability of phenylephrine and other phenolic bioactivities” (VIRGINIA COMMONWEALTH UNIVERSITY, priority 2011, dated 2017).

Experiment [1] relates to human LS180 intestinal cells. The experiment is described as follows: Inhibition of phenylephrine (PE) metabolism (PE disappearance) in LS180 cells. The class given is cell-based. As to conditions: Homo sapiens, LS180 cells. As to the method:
The inhibitors which can be used in the practice of the invention are wide ranging. […] The LS180 model provides an inexpensive method to imitate the human intestine, with regards to PE metabolism. […] For the LS180 experiments, LS180 cells are seeded at the concentration of 1.9×10^5 cells/ml in 12-well plate. […] After incubation, medium is removed and stored at −80° C. until analysis. The metabolic reactions are quenched by placing 12-well plate on ice and quickly rinsing each well. The cell extraction of metabolites is carried out with 1 ml 2% acetic acid solution in methanol. Cells are scraped and collected in centrifuge tubes. The suspension is mixed for 2-3 min and centrifuged at 18,000 rcf for 5 min. Supernatants (800 μl) are collected. After scraping, each well is washed twice as above. The washing solution is collected with the supernatant and dried under reduced pressure. The residue is re-suspended in 35 μl water and analyzed by HPLC. […] The data are processed with one-way ANOVA followed by Dunnett's post test; * indicates p<0.05.
Phenolic compounds were selected from FDA's “GRAS” list, approved food additives, or dietary supplements. LS180 cells were used as a model to test the effect of these phenolic compounds on the pre-systemic sulfation of PE. The cells were incubated in 0.5 ml medium with PE (50 μM)±inhibitor (100 μM) overnight. Extracellular buffer was collected and cells were extracted with methanol. PE was determined by reversed-phase HPLC with fluorescence detection. The formation of PE-sulfate was analyzed by LC-MS/MS. Results (n=3 per group) were analyzed by one-way ANOVA with Dunnett's post-test (p<0.05; Prism 5).

The test system of experiment [2] is human LS180 intestinal cells. Description: Inhibition of PE sulfate formation in LS180 cells. Format: cell-based. Conditions: PE 50 μM ± inhibitor 100 μM, overnight, LC-MS/MS, read-out: PE-sulfate formation inhibited to (control=100%). An excerpt:
The inhibitors which can be used in the practice of the invention are wide ranging. Tables 1 and 2 show results with a number of different compounds which can function as inhibitors of SULT, MAO, CYP, COMT or UGT enzymes, or which otherwise may be used to increase the bioavailability of the exemplary bioactive phenylephrine. […] In Tables 1 and 2, human LS180 intestinal cells were used for screening the inhibition of PE metabolism. For the experiment which produced the results in Table 1, the concentration of PE was […]; the concentration of vitamin C (where present) was 1 mM; the total concentration of other inhibitors was 100 μM. Cells were incubated at 37° C. for 14 to 17.5 hours, as indicated. […] The residue is re-suspended in 35 μl water and analyzed by HPLC. All the samples are analyzed for PE by HPLC with a phenyl column (150×3.2 mm, 5 μm, 55° C.) at the flow rate of […] (20% methanol and 80% (aqueous 1% acetic acid)) and detected by fluorescence (excitation 270 nm, emission 305 nm). […]
Phenolic compounds were selected from FDA's “GRAS” list, approved food additives, or dietary supplements. […] PE was determined by reversed-phase HPLC with fluorescence detection. The formation of PE-sulfate was analyzed by LC-MS/MS. Results (n=3 per group) were analyzed by one-way ANOVA with Dunnett's post-test (p<0.05; Prism 5).

For the compound `COc1ccccc1O` [guaiacol], the activity at 100 µM was determined as 51 ± 14% in experiment [1] (PE 50 μM ± inhibitor 100 μM, overnight, n=3, control=503±127 pmol/hr, read-out: extent of disappearance of PE (mean±SD, as % of control)); 51.3% in experiment [1] (PE 50 μM, inhibitors total 100 μM, incubation 18.5 hr, read-out: Extent of PE Disappearance (as % of control)); 33 ± 7% in experiment [2].
